Test results taken from PubChem BioAssay (NCI).
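Growth conditions: 96-well plates. Treatment: test compound, 48 hours, 5 concentrations. Analysis: linear interpolation between bracketing concentrations; unreached endpoints set to highest concentration. Abbreviation: GI50, concentration required for 50% inhibition of growth. TGI: concentration producing complete growth inhibition.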

What was measured:
Experiment in all cases: growth of human tumour cells (NCI), 48 h
[1] = test system: CCRF-CEM leukemia
[2] = test system: HCC-2998 colon
[3] = test system: EKVX NSCLC
[4] = test system: 786-0 renal
[5] = test system: OVCAR-5 ovarian
[6] = test system: HOP-92 NSCLC
[7] = test system: IGROV1 ovarian
[8] = test system: HL-60(TB) leukemia
[9] = test system: MOLT-4 leukemia
[10] = test system: A498 renal

| Compound | TGI [1] [µM] | TGI [2] [µM] | TGI [3] [µM] | TGI [4] [µM] | TGI [5] [µM] | TGI [6] [µM] | TGI [7] [µM] | TGI [8] [µM] | GI50 [1] [µM] | GI50 [2] [µM] | GI50 [3] [µM] | GI50 [4] [µM] | GI50 [5] [µM] | GI50 [9] [µM] | TGI [9] [µM] | GI50 [6] [µM] | GI50 [7] [µM] | GI50 [8] [µM] | TGI [10] [µM] | GI50 [10] [µM] |
| --- | --- | --- | --- | --- | --- | --- | --- | --- | --- | --- | --- | --- | --- | --- | --- | --- | --- | --- | --- | --- |
| CC(C)(C)[C@H]1CO[C@]2(C)[C@@H]3C[C@@H]3C(=O)N12 | > 100 | > 100 | > 100 | > 100 | > 100 | > 100 | > 100 | > 100 | – | – | – | – | – | – | – | – | – | – | – | – |
| N.N.NC(CS)C(=O)[O-].NC(CS)C(=O)[O-].[Pt+4] (centres undefined) | > 50 | > 50 | > 50 | > 50 | > 50 | > 50 | > 50 | > 50 | > 50 | > 50 | > 50 | > 50 | > 50 | > 50 | > 50 | > 50 | > 50 | > 50 | – | – |
| ON=C1CCC(c2ccccc2)CC1 (centres undefined) | > 100 | > 100 | > 100 | > 100 | > 100 | > 100 | > 100 | > 100 | – | – | – | – | – | – | – | – | – | – | > 100 | – |
| O=C1c2ccccc2-c2c1c1ccccc1c(=O)n2CCNCCNCCn1c2c(c3ccccc3c1=O)C(=O)c1ccccc1-2 | – | 14.9 | 27.2 | 2.37 | 34.5 | 39.7 | > 21.2 | > 100 | – | 0.279 | 10.6 | 0.0267 | 8.91 | – | > 100 | 17.4 | 1.02 | 98.5 | 29.9 | 14.4 |
| COC(=O)/C(=C\c1c(C)[nH]c2ccccc12)S(=O)(=O)c1ccccc1 | – | 17.4 | > 100 | 24.1 | 38 | 51.2 | 8.94 | – | – | 4.89 | 5.04 | 8.23 | 17.4 | 1.9 | > 100 | 4.14 | 1.53 | – | 20.9 | 5.45 |
| COc1ccc(/C=C\c2cc(OC)c(OC)c(OC)c2)cc1OCC(=O)Nc1nc2ccc(C(F)(F)F)cc2s1 | > 100 | > 100 | > 100 | > 100 | > 100 | 75.6 | > 100 | – | 4.27 | 4.23 | 6.25 | 6.69 | 5.98 | 3.75 | > 100 | 2.88 | 4.48 | – | 18.6 | 2.81 |
| c1ccc(N=C2c3ccccc3C3=NCCCN32)cc1 | > 100 | > 100 | > 100 | > 100 | > 100 | 72.2 | > 100 | – | – | – | – | – | – | – | > 100 | – | – | – | > 100 | – |
| COc1cc2c(/C=C3/C(=O)Nc4ccccc43)c(Cl)n(Cc3ccccc3[N+](=O)[O-])c2cc1C | > 100 | – | 29.5 | 22.5 | 35.4 | 26.8 | > 100 | > 100 | 5.62 | – | 5.66 | 6.31 | 15.6 | 5.51 | 70.3 | 7.25 | 7.46 | 4.78 | 32.6 | 12.4 |
| C[C@]12CC[C@@H]3c4ccc(O)cc4CC[C@H]3[C@@H]1CC[C@@H]2NS(=O)(=O)Cc1ccc(Cl)cc1 | > 100 | 8.14 | – | 6.87 | 14.2 | 7.24 | 10.4 | 14.5 | 2.63 | 2.99 | – | 2.66 | 3.76 | 2.62 | 31.3 | 2.13 | 2.99 | 3.26 | 3.87 | 1.29 |
| O=c1cc(-c2ccccc2)nc2n1CCN2Cc1ccccc1 | 42.8 | – | 96.1 | > 100 | – | > 100 | 53.2 | 58.2 | 16.2 | – | 30.5 | 39.7 | – | 20.2 | 79.5 | 42.8 | 21.2 | 33.1 | 34.2 | 10.1 |
| O=C(O)C12C3CCCC1C2CC3 (centres undefined) | > 100 | – | > 100 | > 100 | > 100 | > 100 | > 100 | > 100 | – | – | – | – | – | – | > 100 | – | – | – | > 100 | – |
| Nc1ccccc1C#C/C=C\C#Cc1ccc(Cl)cc1Cl | 10.6 | 9.58 | 47.9 | 27.4 | 28.7 | 48.1 | 38.7 | – | 0.376 | 3.37 | 18.8 | 13.5 | 13.8 | 1.62 | > 100 | 17 | 14.8 | – | 27 | 12.6 |
